Source: patent publication US20250179057A1, “MEK IMMUNE ONCOLOGY INHIBITORS AND THERAPEUTIC USES THEREOF” (Immuneering Corporation, priority 2022, published 2025)
Structures can show the parent of a compound that is named as a salt.

How the values were obtained:
[1] = Hepatocyte stability, cynomolgus monkey; type: in vitro ADME; details: 0.5 million cells/ml; for half-life at 2 μM: cynomolgus monkey hepatocytes; for CLint scaled at 2 μM: cynomolgus monkey, hepatocytes
Procedure: (§1) In this study, human, cynomolgus monkey, beagle dog, wistar hannover rat, and balb/c mouse hepatocyle stability was determined.

[2] = target: hERG (Homo sapiens, UniProt Q12809); experiment: cell-based
Procedure: Materials and Methods: CHO cells (transformed with adenovirus 5 DNA; Stably transfected with full length hERG cDNA) were cultured in Ham's F-12 supplemented with 10% fetal bovine serum, 100 U/mL penicillin G sodium, 100 μg/mL streptomycin sulfate and 400 μg/mL Zeocin. Before testing, cells in culture dishes were rinsed with Hank's Balanced Salt Solution, detached with accutase.
HEPES-buffered intracellular solution (Charles River proprietary) for whole cell recordings was loaded into the intracellular compartment of the SP384PE. Extracellular buffer (HB-PS) and Cell suspension (in HB-PS) were pipetted into the extracellular compartment of the SP384PE chip. After establishment of a whole-cell configuration, membrane currents were recorded using patch clamp amplifier in the SP384PE system.
Test article (TA) concentrations (eight (8) concentrations of each test article were evaluated) were applied to naïve cells (n=4, where n=replicates/concentration). Each application consisted of addition of 40 μL of 2× concentrated test article solution to the total 80 μL of final volume of the extracellular well of the SP384PE chip. Duration of exposure to each compound concentration was five (5) minutes.
hERG current was measured using stimulus voltage patterns with fixed amplitudes: activation pre-pulse (TP1) to +40 mV for 2 s and test pulse (TP2) to −40 mV for 2 s from a holding potential of −80 mV. hERG current was measured as the outward peak current at TP2 (tail current). The stimulation was repeated with 0.1 Hz frequency during 2 min as baseline and 5 min after TA application.
Data acquisition and analyses were performed using the SP384PE system operation software. The decrease in current amplitude after TA application was used to calculate the percent block relative to control.
Tonic Block effect was calculated as:
[formula] • where ITP2, baseline and ITP2, TA were the outward peak K^+ currents elicited by the TP2 before application and 5 min after application of a test article, respectively.
The data were corrected for run-down:
[formula] • where % VC and % PC were the mean values of the current block with the vehicle and positive controls, respectively.
Concentration-response data were fitted to an equation of the following form:
[formula] • where [Test] was the concentration of test article, IC50 was the concentration of the test article producing half-maximal block, N was the Hill coefficient, % VC was the mean current block at the vehicle control and % Block was the percentage of ion channel current inhibited at each concentration of a test article. Nonlinear least squares fits were solved with the XLfit add-in for Excel (Microsoft, Redmond, WA).
In this study, hERG Ion channel block of IC50 values were determined. […] In brief, CHO cells were cultured in Ham's F-12 supplemented with 10% fetal bovine serum, 100 U/mL penicillin G sodium, 100 μg/mL streptomycin sulfate and 400 μg/mL Zeocin. Before testing, cells in culture dishes were rinsed with Hank's Balanced Salt Solution, detached with accutase. […] Test article (TA) concentrations were applied to naïve cells (n=4, where n=replicates/concentration). Each application consisted of addition of 40 μL of 2× concentrated test article solution to the total 80 μL of final volume of the extracellular well of the SP384PE chip. Duration of exposure to each compound concentration was five (5) minutes. hERG current was measured using stimulus voltage patterns with fixed amplitudes: activation pre-pulse (TP1) to +40 mV for 2 s and test pulse (TP2) to −40 mV for 2 s from a holding potential of −80 mV. hERG current was measured as the outward peak current at TP2 (tail current). The stimulation was repeated with 0.1 Hz frequency during 2 min as baseline and 5 min after TA application. Data acquisition and analyses were performed using the SP384PE system operation software.

[3] = Caco-2 bidirectional permeability (absorption & efflux); details: human
[4] = target: CYP3A4 (Homo sapiens, UniProt P08684); experiment: CYP450 panel inhibition in human liver microsomes, 3A4 (midazolam / testosterone); details: 10 μM; for CYP-3A4 (Testosterone) mean percentage CYP inhibition: substrate testosterone; for CYP-3A4 (Midazolam) mean percentage CYP inhibition: substrate midazolam
[5] = Hepatocyte stability, wistar hannover rat; type: in vitro ADME; details: 0.5 million cells/ml; for CLint scaled at 2 μM: Wistar Hannover, rat, hepatocytes; for half-life at 2 μM: wistar hannover rat hepatocytes
Procedure: as §1

[6] = Hepatocyte stability, balb/c mouse; type: in vitro ADME; details: 0.5 million cells/ml; for CLint scaled at 2 μM: BALB/c, mouse, hepatocytes; for half-life at 2 μM: balb/c mouse hepatocytes
Procedure: as §1

[7] = Hepatocyte stability, beagle dog; type: in vitro ADME; details: 0.5 million cells/ml; for half-life at 2 μM: beagle dog hepatocytes; for CLint scaled at 2 μM: beagle, dog, hepatocytes
Procedure: as §1

[8] = read-out: CLint (L/hr/kg) (converted)

Sequence of CYP3A4 (P08684 whole entry): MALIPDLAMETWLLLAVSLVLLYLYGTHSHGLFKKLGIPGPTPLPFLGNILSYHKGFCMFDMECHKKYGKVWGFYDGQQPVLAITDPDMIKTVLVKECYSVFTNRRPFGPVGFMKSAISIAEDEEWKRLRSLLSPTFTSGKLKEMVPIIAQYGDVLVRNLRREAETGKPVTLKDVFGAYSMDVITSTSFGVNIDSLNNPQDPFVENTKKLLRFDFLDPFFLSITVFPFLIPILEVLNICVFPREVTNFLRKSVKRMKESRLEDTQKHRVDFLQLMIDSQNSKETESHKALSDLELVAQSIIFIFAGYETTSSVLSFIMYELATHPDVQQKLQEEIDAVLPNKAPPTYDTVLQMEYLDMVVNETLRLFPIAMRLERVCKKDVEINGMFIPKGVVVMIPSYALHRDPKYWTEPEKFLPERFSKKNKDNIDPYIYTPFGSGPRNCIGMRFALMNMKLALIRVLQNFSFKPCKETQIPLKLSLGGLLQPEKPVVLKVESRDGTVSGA
Sequence of hERG (Q12809 whole entry): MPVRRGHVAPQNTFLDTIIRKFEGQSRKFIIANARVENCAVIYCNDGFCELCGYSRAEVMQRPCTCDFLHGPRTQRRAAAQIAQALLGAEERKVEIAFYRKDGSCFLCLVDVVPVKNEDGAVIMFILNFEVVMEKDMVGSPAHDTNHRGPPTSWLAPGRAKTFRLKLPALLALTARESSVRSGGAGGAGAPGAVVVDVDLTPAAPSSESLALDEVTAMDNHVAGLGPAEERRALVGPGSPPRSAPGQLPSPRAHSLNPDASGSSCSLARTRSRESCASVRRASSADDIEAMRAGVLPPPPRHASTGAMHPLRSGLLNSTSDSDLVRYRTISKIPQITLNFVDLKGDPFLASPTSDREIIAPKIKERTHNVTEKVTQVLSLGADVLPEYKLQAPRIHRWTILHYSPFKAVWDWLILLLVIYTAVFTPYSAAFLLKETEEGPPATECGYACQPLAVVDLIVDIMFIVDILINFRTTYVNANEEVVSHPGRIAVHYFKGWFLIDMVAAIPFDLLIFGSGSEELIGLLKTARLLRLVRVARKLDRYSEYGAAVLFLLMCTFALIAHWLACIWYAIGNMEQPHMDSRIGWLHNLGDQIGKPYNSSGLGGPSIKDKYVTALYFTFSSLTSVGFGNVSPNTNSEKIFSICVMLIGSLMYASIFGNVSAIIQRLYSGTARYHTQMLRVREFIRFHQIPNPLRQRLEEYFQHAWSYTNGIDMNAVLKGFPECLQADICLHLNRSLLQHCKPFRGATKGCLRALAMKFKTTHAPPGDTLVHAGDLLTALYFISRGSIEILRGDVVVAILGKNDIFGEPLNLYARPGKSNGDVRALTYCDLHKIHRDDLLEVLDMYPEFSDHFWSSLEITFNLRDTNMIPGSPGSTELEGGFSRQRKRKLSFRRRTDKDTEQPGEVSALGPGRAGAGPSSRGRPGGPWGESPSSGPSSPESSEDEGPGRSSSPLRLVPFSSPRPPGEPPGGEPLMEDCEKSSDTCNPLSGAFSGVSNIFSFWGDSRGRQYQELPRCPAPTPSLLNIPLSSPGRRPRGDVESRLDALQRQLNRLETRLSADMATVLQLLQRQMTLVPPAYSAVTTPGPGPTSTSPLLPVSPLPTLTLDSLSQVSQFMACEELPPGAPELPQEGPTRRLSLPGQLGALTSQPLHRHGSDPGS

Row | SMILES | half-life at 2 μM [1] [h] | CLint scaled at 2 μM [1, 8] [L/h/kg] | CLint scaled at 2 μM ([1]; read-out: CLint (mL/min/kg)) [L/h/kg] | IC50 [2] [µM] | Papp A→B at 2 h, 10 μM [3] [×10⁻⁶ cm/s] | Papp B→A at 2 h, 10 μM [3] [×10⁻⁶ cm/s] | efflux ratio at 2 h, 10 μM [3] | CYP-3A4 (Testosterone) mean percentage CYP inhibition [4] [%] | CLint scaled at 2 μM [5, 8] [L/h/kg] | CLint scaled at 2 μM ([5]; read-out: CLint (mL/min/kg)) [L/h/kg] | half-life at 2 μM [5] [h] | CLint scaled at 2 μM [6, 8] [L/h/kg] | CLint scaled at 2 μM ([6]; read-out: CLint (mL/min/kg)) [L/h/kg] | half-life at 2 μM [6] [h] | half-life at 2 μM [7] [h] | CLint scaled at 2 μM [7, 8] [L/h/kg] | CLint scaled at 2 μM ([7]; read-out: CLint (mL/min/kg)) [L/h/kg] | CYP-3A4 (Midazolam) mean percentage CYP inhibition [4] [%] | IC50 at 5 min ([2]; human) [µM]
1 | CNS(=O)(=O)Nc1cccc(Cc2c(CN3CCNCC3)c3cc(Cl)c(OC(=O)N(C)C)cc3oc2=O)c1Cl [Compound 256, 6-chloro-3-(2-chloro-3-((N-methylsulfamoyl)amino)benzyl)-2-oxo-4-(piperazin-1-ylmethyl)-2H-chromen-7-yl dimethylcarbamate hydrochloride] | 2.25 | 2.5 | 2.5 | 21.6 | 3.59 | 13.4 | 3.73 | 69.2 | 2.12 | 2.12 | 1.75 | 4.98 | 4.98 | 3.28 | 2.98 | 2.5 | 2.5 | – | –
2 | CNS(=O)(=O)Nc1cccc(Cc2c(CN(C)C)c3ccc(OC(=O)N(C)C)cc3oc2=O)c1Cl [Compound 274, 3-(2-chloro-3-((N-methylsulfamoyl)amino)benzyl)-4-((dimethylamino)methyl)-2-oxo-2H-chromen-7-yl dimethylcarbamate] | 0.985 | 5.7 | 5.69 | > 30 | 16.8 | 8.95 | 0.533 | 50.4 | 2.84 | 2.84 | 1.32 | 5.23 | 5.23 | 3.13 | 2.12 | 3.52 | 3.52 | 20.1 | –
3 | Cn1cnc2c(F)c(Nc3ccc(Br)cc3Cl)c(C(=O)NOCCO)cc21 [Reference-1, Selumetinib] | – | – | – | – | – | – | – | – | – | – | – | – | – | – | – | – | – | – | > 30
4 | CCN(C)Cc1c(Cc2cccc(NS(=O)(=O)NC)c2Cl)c(=O)oc2cc(OC(=O)N(C)C)ccc12 [Compound 245, 3-(2-chloro-3-((N-methylsulfamoyl)amino)benzyl)-4-((ethyl(methyl)amino)methyl)-2-oxo-2H-chromen-7-yl dimethylcarbamate] | 0.407 | 13.8 | 13.8 | 16.1 | 11.9 | 6.87 | 0.578 | 72.8 | 5 | 5 | 0.748 | 7.54 | 7.56 | 2.17 | 0.953 | 7.81 | 7.8 | 42.3 | –
5 | CNS(=O)(=O)Nc1cccc(Cc2c(CN3CCNCC3)c3ccc(OC(=O)N(C)C)cc3oc2=O)c1Cl [Compound 246, 3-(2-chloro-3-((N-methylsulfamoyl)amino)benzyl)-2-oxo-4-(piperazin-1-ylmethyl)-2H-chromen-7-yl dimethylcarbamate hydrochloride] | 6.75 | 0.832 | 0.834 | > 30 | 4.16 | 6.99 | 1.68 | 24.6 | 1.25 | 1.25 | 3 | 3.62 | 3.62 | 4.53 | 6.07 | 1.23 | 1.23 | – | –
6 | CCN(C)Cc1c(Cc2cccc(NS(=O)(=O)NC)c2F)c(=O)oc2cc(OC(=O)N(C)C)c(F)cc12 [Compound 238] | 0.953 | 5.89 | 5.89 | 19.4 | 14.2 | 13.5 | 0.956 | – | 3.97 | 3.97 | 0.943 | 6.57 | 6.6 | 2.48 | 1.19 | 6.28 | 6.3 | – | –
7 | CCS(=O)(=O)Nc1cccc(Cc2c(CN3CCNCC3)c3cc(Cl)c(OC(=O)N(C)C)cc3oc2=O)c1Cl [Compound 257, 6-chloro-3-(2-chloro-3-(ethylsulfonamido)benzyl)-2-oxo-4-(piperazin-1-ylmethyl)-2H-chromen-7-yl dimethylcarbamate hydrochloride] | 2.98 | 1.88 | 1.88 | 8.4 | 4.08 | 22.1 | 5.41 | 66.0 | 2.13 | 2.13 | 1.75 | 4.78 | 4.78 | 3.43 | 1.88 | 3.96 | 3.97 | – | –
